# Laboratory results from patent US12428406B2 (PMV Pharmaceuticals, Inc., priority 2019, dated 2025).
# Target: T1, p53 Y220C (Homo sapiens, UniProt P04637, Y220C)
# T1 construct: The recombinant protein was a truncation mutant containing only amino acids 94-312 of p53; made in house; host or cells: E. coli
# Test: In vitro DNA binding activity assay (HTRF / TR-FRET): stabilization of p53 Y220C and increase of its DNA binding activity
# Format: biochemical
# Conditions: recombinant His-tagged p53 Y220C DNA binding domain (aa 94-312), biotin-labeled consensus DNA, incubated at 27° C. or 29° C. for 60 min
# Outline: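 Compound effect on DNA binding of recombinant His-p53 Y220C (E. coli) to biotin-labeled consensus DNA, expressed as SC150, the concentration giving 50% increase versus untreated. Serial 3-fold DMSO dilutions of 4.5 mM stocks; room-temperature steps of 15 then 20 min.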
# T1 sequence (P04637 94-312, change not shown): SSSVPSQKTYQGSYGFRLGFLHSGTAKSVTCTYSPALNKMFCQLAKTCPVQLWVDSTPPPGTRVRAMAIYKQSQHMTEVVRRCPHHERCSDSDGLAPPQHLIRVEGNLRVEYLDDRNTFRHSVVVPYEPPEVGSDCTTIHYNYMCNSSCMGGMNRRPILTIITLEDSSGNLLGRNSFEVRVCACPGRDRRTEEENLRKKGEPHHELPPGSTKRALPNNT
row,SMILES,SC150 (concentration of the compound required to increase the DNA binding activity by 50%)
1,"CNC(=O)c1cc(OC)c(NCC#Cc2cc3c(N[C@H]4CC[C@H](N5CC6(COC6)C5)CC4)cccc3n2CC(F)(F)F)cc1F [Compound 275A, 2-fluoro-5-methoxy-N-methyl-4-{[3-(4-{[(1R,4R)-4-{2-oxa-6-azaspiro[3.3]heptan-6-yl}cyclohexyl]amino}-1-(2,2,2-trifluoroethyl)-1H-indol-2-yl)prop-2-yn-1-yl]amino}benzamide]",+ (+ = 0 μM ≤ SC150 < 0.05 μM)
2,"COc1cc(C(F)(F)F)ccc1NCC#Cc1cc2c(N[C@H]3CC[C@H](N4CC5(COC5)C4)CC3)cccc2n1CC(F)(F)F [Compound 277A, 2-(3-{[2-methoxy-4-(trifluoromethyl)phenyl]amino}prop-1-yn-1-yl)-N-[(1R,4R)-4-{2-oxa-6-azaspiro[3.3]heptan-6-yl}cyclohexyl]-1-(2,2,2-trifluoroethyl)-1H-indol-4-amine]",++ (++ = 0.05 μM ≤ SC150 < 0.1 μM)
3,"COc1cc(C(=O)O)ccc1NCC#Cc1cc2c(N[C@H]3CC[C@H](N4CC5(COC5)C4)CC3)cccc2n1CC(F)(F)F [Compound 279A, 4-((3-(4-(((1R,4R)-4-(2-oxa-6-azaspiro[3.3]heptan-6-yl)cyclohexyl)amino)-1-(2,2,2-trifluoroethyl)-1H-indol-2-yl)prop-2-yn-1-yl)amino)-3-methoxybenzoic acid]",+ (+ = 0 μM ≤ SC150 < 0.05 μM)
4,"COc1cc(C(=O)O)c(F)cc1NCC#Cc1cc2c(N[C@H]3CC[C@H](N4CC5(COC5)C4)CC3)cccc2n1CC(F)(F)F [Compound 281A, 2-fluoro-5-methoxy-4-{[3-(4-{[(1R,4R)-4-{2-oxa-6-azaspiro[3.3]heptan-6-yl}cyclohexyl]amino}-1-(2,2,2-trifluoroethyl)-1H-indol-2-yl)prop-2-yn-1-yl]amino}benzoic acid]",+ (+ = 0 μM ≤ SC150 < 0.05 μM)
5,"Cc1cc(S(C)(=O)=O)ccc1NCC#Cc1cc2c(N[C@H]3CC[C@H](N4CC5(COC5)C4)CC3)cccc2n1CC(F)(F)F [Compound 283A, 2-{3-[(4-methanesulfonyl-2-methylphenyl)amino]prop-1-yn-1-yl}-N-[(1R,4R)-4-{2-oxa-6-azaspiro[3.3]heptan-6-yl}cyclohexyl]-1-(2,2,2-trifluoroethyl)-1H-indol-4-amine]",+ (+ = 0 μM ≤ SC150 < 0.05 μM)
6,"CS(=O)(=O)c1ccc(NCC#Cc2cc3c(N[C@H]4CC[C@H](N5CC6(COC6)C5)CC4)cccc3n2CC(F)(F)F)c(OC(F)(F)F)c1 [Compound 285A, 2-(3-{[4-methanesulfonyl-2-(trifluoromethoxy)phenyl]amino}prop-1-yn-1-yl)-N-[(1R,4R)-4-{2-oxa-6-azaspiro[3.3]heptan-6-yl}cyclohexyl]-1-(2,2,2-trifluoroethyl)-1H-indol-4-amine]",+ (+ = 0 μM ≤ SC150 < 0.05 μM)
7,"CS(=O)(=O)c1ccc(NCC#Cc2cc3c(N[C@H]4CC[C@H](N5CC6(COC6)C5)CC4)cccc3n2CC(F)(F)F)c(C(F)(F)F)c1 [Compound 287A, 2-(3-{[4-methane-sulfonyl-2-(trifluoro-methyl)phenyl]amino}prop-1-yn-1-yl)-N-[(1R,4R)-4-{2-oxa-6-azaspiro[3,3]heptan-6-yl}cyclohexyl]-1-(2,2,2-trifluoroethyl)-1H-indol-4-amine]",+ (+ = 0 μM ≤ SC150 < 0.05 μM)
8,"CS(=O)(=O)c1ccc(NCC#Cc2cc3c(N[C@H]4CC[C@H](N5CC6(COC6)C5)CC4)cccc3n2CC(F)(F)F)c(Cl)c1 [Compound 289A, 2-{3-[(2-chloro-4-methanesulfonyl-phenyl)amino]prop-1-yn-1-yl}-N-[(1R,4R)-4-{2-oxa-6-azaspiro[3.3]heptan-6-yl}cyclo-hexyl]-1-(2,2,2-trifluo-roethyl)-1H-indol-4-amine]",+ (+ = 0 μM ≤ SC150 < 0.05 μM)
9,"COc1cc(S(C)(=O)=O)ccc1NCC#Cc1cc2c(N[C@H]3CC[C@@H](N4CC5(CCOCC5)C4)CC3)cccc2n1CC(F)(F)F [Compound 293A, 2-{3-[(4-methane-sulfonyl-2-methoxy-phenyl)amino]prop-1-yn-1-yl}-N-[(1S,4S)-4-{7-oxa-2-azaspiro[3.5]nonan-2-yl}cyclo-hexyl]-1-(2,2,2-trifluoro-ethyl)-1H-indol-4-amine]",+ (+ = 0 μM ≤ SC150 < 0.05 μM)
10,"COc1cc(S(C)(=O)=O)ccc1NCC#Cc1cc2c(N[C@H]3CC[C@H](N4CC5(CCOCC5)C4)CC3)cccc2n1CC(F)(F)F [Compound 294A, 2-{3-[(4-methane-sulfonyl-2-methoxy-phenyl)amino]prop-1-yn-1-yl}-N-[(1R,4R)-4-{7-oxa-2-azaspiro[3.5]nonan-2-yl}cyclo-hexyl]-1-(2,2,2-trifluoro-ethyl)-1H-indol-4-amine]",+ (+ = 0 μM ≤ SC150 < 0.05 μM)
11,"CNC(=O)c1ccc(NCC#Cc2cc3c(N[C@H]4CC[C@H](N5CC6(CCOCC6)C5)CC4)cccc3n2CC(F)(F)F)c(OC)c1 [Compound 295A, 3-methoxy-N-methyl-4-{[3-(4-{[(1R,4R)-4-{7-oxa-2-azaspiro[3.5]nonan-2-yl}cyclo-hexyl]amino}-1-(2,2,2-trifluoroethyl)-1H-indol-2-yl)prop-2-yn-1-yl]amino}benzamide]",+ (+ = 0 μM ≤ SC150 < 0.05 μM)
12,"CNC(=O)c1ccc(NCC#Cc2cc3c(N[C@H]4CC[C@@H](N5CC6(CCOCC6)C5)CC4)cccc3n2CC(F)(F)F)c(OC)c1 [Compound 296A, 3-methoxy-N-methyl-4-{[3-(4-{[(1S,4S)-4-{7-oxa-2-azaspiro[3.5]nonan-2-yl}cyclohexyl]amino}-1-(2,2,2-trifluoroethyl)-1H-indol-2-yl)prop-2-yn-1-yl]amino} benzamide]",+ (+ = 0 μM ≤ SC150 < 0.05 μM)
13,"COc1cc(S(N)(=O)=O)ccc1NCC#Cc1cc2c(N[C@H]3CC[C@H](N4CC5(CCOCC5)C4)CC3)cccc2n1CC(F)(F)F [Compound 297A, 3-methoxy-4-{[3-(4-{[(1R,4R)-4-{7-oxa-2-azaspiro[3.5]nonan-2-yl}cyclohexyl]amino}-1-(2,2,2-trifluoroethyl)-1H-indol-2-yl)prop-2-yn-1-yl]amino}benzene-1-sulfonamide]",+ (+ = 0 μM ≤ SC150 < 0.05 μM)
14,"COc1cc(S(N)(=O)=O)ccc1NCC#Cc1cc2c(N[C@H]3CC[C@@H](N4CC5(CCOCC5)C4)CC3)cccc2n1CC(F)(F)F [Compound 298A, 3-methoxy-4-{[3-(4-{[(1S,4S)-4-{7-oxa-2-azaspiro[3.5]nonan-2-yl}cyclohexyl]amino}-1-(2,2,2-trifluoroethyl)-1H-indol-2-yl)prop-2-yn-1-yl]amino}benzene-1-sulfonamide]",+ (+ = 0 μM ≤ SC150 < 0.05 μM)
15,"N#CCOc1cc(S(N)(=O)=O)ccc1NCC#Cc1cc2c(N[C@H]3CC[C@H](N4CC5(CCOCC5)C4)CC3)cccc2n1CC(F)(F)F [Compound 299A, 3-(cyanomethoxy)-4-{[3-(4-{[(1R,4R)-4-{7-oxa-2-azaspiro[3.5]nonan-2-yl}cyclo-hexyl]amino}-1-(2,2,2-trifluoroethyl)-1H-indol-2-yl)prop-2-yn-1-yl]amino}benzene-1-sulfonamide]",+ (+ = 0 μM ≤ SC150 < 0.05 μM)
16,"N#CCOc1cc(S(N)(=O)=O)ccc1NCC#Cc1cc2c(N[C@H]3CC[C@@H](N4CC5(CCOCC5)C4)CC3)cccc2n1CC(F)(F)F [Compound 300A, 3-(cyanomethoxy)-4-{[3-(4-{[(1S,4S)-4-{7-oxa-2-azaspiro[3.5]nonan-2-yl}cyclo-hexyl]amino}-1-(2,2,2-trifluoroethyl)-1H-indol-2-yl)prop-2-yn-1-yl]amino}benzene-1-sulfonamide]",+ (+ = 0 μM ≤ SC150 < 0.05 μM)
17,"COc1cc(C(C)(C)C#N)ccc1NCC#Cc1cc2c(N[C@H]3CC[C@H](N4CC5(CCOCC5)C4)CC3)cccc2n1CC(F)(F)F [Compound 301A, 2-(3-methoxy-4-{[3-(4-{[(1R,4R)-4-{7-oxa-2-azaspiro[3.5]nonan-2-yl}cyclohexyl]amino}-1-(2,2,2-trifluoroethyl)-1H-indol-2-yl)prop-2-yn-1-yl]amino}phenyl)-2-methylpropanenitrile]",+ (+ = 0 μM ≤ SC150 < 0.05 μM)
18,"CS(=O)(=O)c1ccc(NCC#Cc2cc3c(N[C@H]4CC[C@H](N5CC6(CCOCC6)C5)CC4)cccc3n2CC(F)(F)F)c(OCC#N)c1 [Compound 303A, 2-(5-methanesulfonyl-2-{[3-(4-{[(1R,4R)-4-{7-oxa-2-azaspiro[3.5]nonan-2-yl}cyclohexyl]amino}-1-(2,2,2-trifluoroethyl)-1H-indol-2-yl)prop-2-yn-1-yl]amino}phenoxy)acetonitrile]",+ (+ = 0 μM ≤ SC150 < 0.05 μM)
19,"CS(=O)(=O)c1ccc(NCC#Cc2cc3c(N[C@H]4CC[C@@H](N5CC6(CCOCC6)C5)CC4)cccc3n2CC(F)(F)F)c(OCC#N)c1 [Compound 304A, 2-(5-methanesulfonyl-2-{[3-(4-{[(1S,4S)-4-{7-oxa-2-azaspiro[3.5]nonan-2-yl}cyclohexyl]amino}-1-(2,2,2-trifluoroethyl)-1H-indol-2-yl)prop-2-yn-1-yl]amino}phenoxy)acetonitrile]",+ (+ = 0 μM ≤ SC150 < 0.05 μM)
